# Data from ChEMBL document CHEMBL4118102 (J Med Chem, 2018).
# pIC50: −log10 of the molar value.
# Legend:
# [1] = biological target: Neuraminidase (Influenza A virus (A/Memphis/1/1971(H3N2)), UniProt P03471, E119V); design: species or system Influenza A virus (A/Fukui/45/2004(H3N2))
# [2] = biological target: Neuraminidase (Influenza A virus (A/Memphis/1/1971(H3N2)), UniProt P03471, E119V); design: species or system Influenza A virus (A/Fukui/45/2004(H3N2)); remark: listed apart in the source
Structure (SMILES),pIC50 [1],pIC50 [2]
CC(=O)N[C@@H]1C[C@@H](F)[C@](F)(C(=O)O)O[C@H]1[C@H](O)[C@H](O)CO,5.43,5.43
CC(=O)N[C@@H]1[C@@H](O)[C@@H](F)[C@](F)(C(=O)O)O[C@H]1[C@H](O)CCO,4.60,5.36
